In patent US20240247029A1, “INTERLEUKIN-1 RECEPTOR MODULATORS AND USES THEREOF” (VALORISATION HSJ, LIMITED PARTNERSHIP, priority 2020, published 2024):

Columns and labels:
[1] = tested on: IL-1β-induced NF-κB signaling in HEK-Blue IL-33/IL-1β cells; experiment: NF-κB QUANTI-Blue assay; type: cell-based; details: Kineret 1.0 mg/mL, 30 min pretreatment, IL-1β 100 ng/ml
Description: FIG. 3 is a graph showing the effects of peptides 1 and 2 on IL-1β-induced NF-κB signaling in HEK-Blue cells as quantified in the QUANTI-blue assay. After pre-incubation with peptide or vehicle, HEK-Blue cells were stimulated with IL-1β for 24 h, and secreted alkaline phosphatase activity was spectroscopically detected as a reporter product from the transcription of the NF-κB gene. Data shown represents the average of 2 experiments (each with n=4 per treatment group): ****p<0.0001 compared to group treated only with IL-1β.
HEK-Blue IL-33/IL-1β cells (InvivoGen) were respectively pretreated with peptides 1 and 2 (10^−6 M), or Kineret (1.0 mg/mL) for 30 min, followed by treatment with a constant concentration of […] (100 ng/ml), and incubation at 37° C. for 4 h. Levels of secreted alkaline phosphatase in cell culture supernatant were determined using the QUANTI-Blue assay, according to the manufacturer's instructions (InvivoGen). Alkaline phosphatase activity was assessed by measuring the optical density (OD) at 620-655 nm with an EnVision Multilabel micro plate reader (PerkinElmer, Waltham, MA). Data are representative of 3 experiments (each with n=4 per treatment group).

[2] = tested on: COX-2 (PTGHS2) gene expression; experiment: qPCR of COX-2 gene expression in RAW 264.7 macrophages; type: cell-based; details: peptide 10^−6 M, 30 min pre-incubation, IL-1β stimulation, RAW 264.7 mouse macrophages
Description: (§1) FIGS. 4A and 4B are graphs showing the results of qPCR analysis of IL-1β (FIG. 4A) and COX-2 (FIG. 4B) gene expression within lysates from RAW 264.7 mouse macrophage cells after exposure to peptides 1 and 2 (10^-6 M) or Kineret (1 mg/mL) followed by […] incubation overnight. Results represent an average of 3 independent experiments (each with n=4 per treatment group) and are expressed as a fold-change of the non-stimulated control: *p<0.05, **p<0.01 compared to group treated only with IL-1β, and 18S rRNA as internal control. Treatment groups that are not labeled with asterisks are statistically non-significant compared to group treated only with IL-1β.;
(§2) RAW Blue cells were purchased from InvivoGen® (San Diego, CA), used at passages under 15, and cultured in DMEM growth medium supplemented with 10% serum, 50 U/mL penicillin and […] zeocin. Cells were grown in regular conditions (37° C., 5% CO2), serum starved overnight, and treated with 100 ng/ML IL-1β for 4 h. Cells were respectively pre-incubated for 30 min with peptides 1 and 2 (10^−6 M) or Kineret® (1.0 mg/mL) to reach equilibrium prior to the experiments (n=4 each treatment). Cells were harvested and incubated for 5 min in RIBOzol® (AMRESCO). RNA was extracted according to manufacturer's protocol and RNA concentration and integrity were measured with a NanoDrop® 1,000 spectrophotometer. A total of 500 ng of RNA was used to synthesize cDNA using iScript Reverse Transcription SuperMix® (Bio-Rad, Hercules, CA). Primers (Table 1) were designed using National Center for Biotechnology Information Primer Blast. Quantitative gene expression analysis was performed on Stratagene® MXPro3000 (Stratagene) with SYBR Green Master Mix (Bio-Rad). Gene expression levels were normalized to 18S universal primer (Ambion Life Technology, Burlington ON, Canada). Genes analyzed include […] and PTGHS2 [Prostaglandin H synthetase 2 or cyclooxygenase-2 (COX-2)]. Data are representative of 3 experiments (each with n=4 per treatment group).

IL-1β gene expression = experiment: qPCR of IL-1β gene expression in RAW 264.7 macrophages; type: cell-based; details: peptide 10^−6 M, 30 min pre-incubation, IL-1β stimulation, RAW 264.7 mouse macrophages
Description: as §1, §2

Sprague Dawley rat pups = experiment: Oxygen-induced retinopathy (OIR) model; type: in vivo; details: 2 mg/kg/day intraperitoneal twice daily, 80% oxygen P5 to P10; for extent of vaso-obliteration (percentage of total retinal area): vehicle ˜30%
Text: Experiments in the oxygen-induced retinopathy rodent model were preformed according to the method described previously (Geranurimi et al. 2019), and summarized below.
Animals. Two-day-old (P2) Sprague Dawley rat pups and their mothers were ordered from Charles River (Raleigh, SC, USA) and acclimatized for 3 days in standard conditions. All procedures and protocols involving the use of the rats were approved by the Animal Care Committee of the research center of Hopital Maisonneuve-Rosemont and are in accordance with the Statement for the Use of Animals in Ophthalmic and Vision Research approved by the Association for Research in Vision and Ophthalmology, and guidelines established by the Canadian Council on Animal Care.
Oxygen-Induced Retinopathy in Sprague Dawley Rats. The 80% oxygen model of retinopathy was conducted as previously described (Geranurimi et al. 2019). Briefly, litters of P5 pups and their mothers were kept in a controlled 80% oxygen environment until P10. The pups were respectively injected intraperitoneally twice daily with PBS vehicle (20 μL per injection), peptide 1 or derivatives 2 (titrated to a daily dose of 2 mg/kg/day). Control litters were kept under normal air atmosphere and standard conditions. On P10, pups were euthanized by decapitation under 2% isoflurane anesthesia. Eyes were enucleated and fixed in 4% paraformaldehyde, then stored at 4° C. in phosphate-buffered saline (PBS) until further processing.
Retinal Flatmount and Immunohistochemistry. The fixed eyes were dissected, and the obtained retinas were incubated with antibodies and mounted onto slides as previously described in (Geranurimi et al. 2019). Briefly, the cornea and lens were removed from the eyes, and the retina gently removed from the underlying sclera-choroid-retinal pigmented epithelium (RPE) complex. Retinas were treated for 1h with blocking solution [1% bovine serum albumin (BSA), 1% normal goat serum, 0.1% Triton X-100 and 0.05% Tween-20 in PBS], and then incubated overnight with lectin and Iba-1 primary antibody, followed by Alexa-594-conjugated secondary antibody for 2 h. Retinas were then mounted onto microscope slides under coverslips with anti-fade mounting medium.
Microscopy. Retinal flatmounts were imaged using the Zeiss Axiolmager Z2 and the MosaiX feature of the AxioVision software as previously described (Geranurimi et al. 2019). Representative images after Iba-1 staining were taken using a laser scanning confocal microscope (Olympus IX81 with Fluoview FV1000 Scanhead) using the Fluoview Software at 30× magnification.
Quantification and Data Analysis. The FIJI software was used to quantify the area of vaso-obliteration in each retina, expressed as a percentage of the area of the whole retina. The number of Iba-1-positive cells was counted using the cell counter plug-in in the FIJI software, and the average of cell counts in 4 fields per retina was calculated. Data was analyzed using Prism 7 with one-way ANOVA and the Dunnett's test for multiple comparisons. Results were treated as significant when p was less than 0.05 and expressed as mean+SEM.

[3] = tested on: IL-1β-induced phosphorylation of JNK; experiment: IL-1β-induced JNK phosphorylation, Western blot, RAW Blue cells; type: cell-based; details: peptide 10^−6 M 30 min, then IL-1β 15 min
Description: (§3) FIGS. 5A-C are graphs showing the effects of peptides 1 and 2 on IL-1β-induced phosphorylation of p38 (FIG. 5A), JNK (FIG. 5B), and ROCK2 (FIG. 5C). Graphical representations of band density analysis of Western Blots are shown as fold activation compared to control. RAW Blue cells were pretreated with peptides 1 and 2 (10^−6 M), Kineret (1 mg/mL), or vehicle for 30 min and then stimulated with IL-1β for 15 min. Results shown are the average of 3 independent experiments: *p<0.05, ** p<0.01, ***p<0.001 compared to group treated only with IL-1β. Treatment groups that are not labeled with asterisks are statistically non-significant compared to group treated only with IL-1β.

timed-pregnant CD-1 mice = experiment: LPS-induced preterm birth model in mice; type: in vivo, mouse; details: 2 mg/kg/day subcutaneous, LPS 10 μg intraperitoneal on G16.5; for PTB rate: delivery before G18.5, LPS alone ˜80%
Description: FIG. 6 is a graph showing the effects of peptides 1 and 2 on prevention of PTB. In brief, pregnant dams on day 16.5 of gestation (G16.5) were subcutaneously pretreated with peptides 1 and 2 (2 mg/kg/day subcutaneous injections) or vehicle, followed by LPS (10 μg intraperitoneal injection), and observed for delivery of pups. A dam was considered as delivering preterm if at least one pup was delivered before G18.5. n=4-5 dams per treatment group.
Timed-pregnant CD-1 mice at 16.5 days of gestation (G16.5) were anesthetized with 2% isoflurane and received an intraperitoneal injection of lipopolysaccharide (LPS, n=4 per group, a single dose of 10 ug) (Nadeau-Vallée et al., 2015; Kakinuma et al., 1997). A dosage of 2 mg/kg/day of peptides 1 and 2 or vehicle was respectively injected subcutaneously in the neck, every 12h until delivery. On G16.5, a dose of 1 mg/kg was injected 30 min before stimulation with LPS (to allow distribution of drugs to target tissues) and 1 mg/kg was injected 12h after stimulation (n=4 each treatment). Mice delivery was assessed every hour until term (G19-G19.5). A mouse was considered as delivering prematurely if the first pup was delivered earlier than G18.5. Data was analyzed using Prism 7 (GraphPad Software, San Diego, CA, USA) with one-way ANOVA and Dunnett's test for multiple comparisons. Outliers were detected using Grubb's test. Results were treated as significant when p was <0.05 and expressed as mean+SEM.
From the results of the in vitro screens, a subset of six (3R,4S)-β-substituted-Agl^3 peptides (e.g., 2c, 2d, 2f, 2l, 2n, 2q) were selected for examination in vivo in a CD-1 mouse model of preterm birth (PTB), and a Sprague Dawley rat model of oxygen-induced retinopathy (OIR). In the PTB model, timed-pregnant CD-1 dams were pre-treated with peptides 1 or 2, or PBS vehicle, and then injected with LPS on day 16.5 of gestation (G16.5). A bacterial cell wall component that contains PAMPs, LPS is known to reliably induce labor via pro-inflammatory pathways implicating IL-1 (Hirsch and Wang 2005). The CD-1 mice have a gestation of 19.2 days (Goupil et al. 2010). Dams that delivered at least one pup before G18.5 were considered to have given birth prematurely. In the absence of peptide, LPS alone induced premature labor in ˜80% of treated mice (FIG. 6). Peptide 1 and triazoles 2 l and 2q, all reduced the PTB rate to ˜20%.

[4] = tested on: IL-1β-induced phosphorylation of ROCK2; experiment: IL-1β-induced ROCK2 phosphorylation, Western blot, RAW Blue cells; type: cell-based; details: peptide 10^−6 M 30 min, then IL-1β 15 min
Description: as §3

[5] = tested on: IL-1β-induced phosphorylation of p38; experiment: IL-1β-induced p38 phosphorylation, Western blot, RAW Blue cells; type: cell-based; details: peptide 10^−6 M 30 min, then IL-1β 15 min
Description: as §3

Substance | COX-2 pro-inflammatory gene expression (qPCR) [2] | IL-1β pro-inflammatory gene expression (qPCR) (IL-1β gene expression) | retinal microglial morphology/activation (Iba-1 staining) (Sprague Dawley rat pups) | extent of vaso-obliteration (percentage of total retinal area) (Sprague Dawley rat pups) [%] | also measured
Kineret®: the recombinant IL-1 receptor antagonist, Kineret® (anakinra) | – | – | – | – | effect on IL-1β-induced NF-κB signaling (secreted alkaline phosphatase) [1]: blocked
[(3R,4S)-4-(4′-(1,1-Dimethyl)aminomethyltriazolyl)Agl^3]-1 [2o] | strong inhibitory effects | strong inhibitory effects | – | – | –
[(3R,4S)-4-(4′-Hydroxymethyltriazolyl)Agl^3]-1 [2q] | strong inhibitory effects | strong inhibitory effects | ramified and branched microglia | ~20 | IL-1β-induced activation (phosphorylation) of JNK [3]: inhibited; PTB rate (timed-pregnant CD-1 mice): ~20%
[(3R,4S)-4-(4′-Phenyltriazolyl)Agl^3]-1 [2l] | – | – | ramified and branched microglia | ~20 | protective effect against vaso-obliteration (Sprague Dawley rat pups): tendencies to have a stronger protective effect than peptide 1; IL-1β-induced ROCK2 phosphorylation [4]: inhibitory activity; IL-1β-induced p38 phosphorylation [5]: inhibiting; IL-1β-induced activation (phosphorylation) of JNK [3]: inhibited; PTB rate (timed-pregnant CD-1 mice): ~20%
[(3R,4S)-4-(4′-m-Aminophenyltriazolyl)Agl^3]-1 [2n] | – | – | ramified and branched microglia | ~20 | effects on PTB (timed-pregnant CD-1 mice): Neither N-oxyphthalimide 2f nor 4-m-aminophenyltriazole 2n exhibited effects on PTB
[(3R,4S)-4-(4′-p-Methylphenyltriazolyl)Agl^3]-1 [2m] | strong inhibitory effects | strong inhibitory effects | – | – | –
[(3R,4S)-4-(AcHN)Agl^3]-1 [2i] | blocked expression | without effecting | – | – | IL-1β-induced p38 phosphorylation [5]: inhibiting
[(3R,4S)-4-(H2NO)Agl^3]-1 [2g] | blocked expression | without effecting | – | – | IL-1β-induced ROCK2 phosphorylation [4]: inhibitory activity
[(3R,4S)-4-(PhthO)Agl^3]-1 [2f] | – | – | ramified and branched microglia | ~20 | effects on PTB (timed-pregnant CD-1 mice): Neither N-oxyphthalimide 2f nor 4-m-aminophenyltriazole 2n exhibited effects on PTB
[(3R, 4S)-4-(N3)Agl^3]-1 [2c] | – | – | active amoeboid state | – | protective effect against vaso-obliteration (Sprague Dawley rat pups): no detectable protective effect
[(3S,4S)-4-(NCS)Agl^3]-1 [2d] | – | – | ramified and branched microglia | ~20 | protective effect against vaso-obliteration (Sprague Dawley rat pups): tendencies to have a stronger protective effect than peptide 1; IL-1β-induced p38 phosphorylation [5]: inhibiting
